Data as given in patent US11458189B2, “Cytoprotective drugs” (BALMES TRANSPLANTATION, priority 2017, dated 2022).
Starred links: 1 amine or outer side, 2 acyl side, 3 side chain; linkers in the order of their positions; H or OH if unused. Positions of bridges follow the written chain, without caps; N, C: chain ends. Non-standard residues stand in square brackets, D forms with d. Residues, ends and D or L forms follow the SMILES beside them. *: point of attachment. hTyr(3S-OH,4S-OH,3'-OSO3H) = N[C@H](C(=O)O)[C@H](O)[C@@H](O)c1ccc(O)c(OS(=O)(=O)O)c1; Orn(4R-OH,5R-OH) = O=C([C@H](C[C@@H](O)[C@@H](O)N[*:3])N[*:1])[*:2]; Pro(3S-OH,4S-Me) = C[C@H]1CN[C@H](C(=O)O)[C@H]1O; X1 = CCCCCOc1ccc(-c2cc(-c3ccc(C(=O)*)cc3)no2)cc1; Gln(3R-OH) = NC(=O)C[C@@H](O)[C@H](N)C(=O)O; Hyp = O=C(O)[C@@H]1C[C@@H](O)CN1

System: Rat Primary Kidney Glomerular Endothelial cells
Assay: Oxygen and glucose deprivation followed by replenishment, cell survival (calcein AM), rat glomerular endothelial cells;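 as to Survival rate (%): 100% is hypoxia control with glucose and 0% is untreated OGD control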
Type: cell-based
Description: Anidulafungin and micafungin were tested on Human Renal Glomerular Endothelial Cells (HRGEC, Innoprot P10665), on Human Renal Proximal Tubular Epithelial Cells (HRPTEpiC, Innoprot P10662), on Human Astrocytes (HA, caltag SC-1800), on Human Cardiac Microvascular Endothelial Cells (HCMEC, Caltag SC-6000), on Human Hepatic Sinusoidal Endothelial Cells (HHSEC, Caltag SC-5000), on Rat Primary Kidney Glomerular Endothelial cells (Cellbiologics, RN-6014G) and on Bovine Brain Microvascular Endothelial Cells (BBMEC, Caltag SC-B100).
In a first phase, these isolated, purified and cryopreserved cells are thawed and multiplied according to the supplier's recommendations in T75 or T175 flasks pre-coated with 2 μg of fibronectin/[…] (CORNING) for HRGEC, HCMEC, HHSEC and BBMEC, or 2 μg poly-L-lysin/cm^2 (Caltag SC-0403) for HRPTEpiC and HA, or 15 mL/flask 175 cm^2 gelatin-based solution (Cellbiologics) in the presence of endothelial cell supplemented growth medium ECM (P60104, INNOPROT, Caltag, SC-1001) for HRGEC, HCMEC, HHSEC, RPKGEC or BBMEC, or astrocyte cell supplemented growth medium AM (Caltag SC-1801) for HA or epithelial cell supplemented growth medium EpiCM (P60106, INNOPROT) for HRPTEpiC, at 37° C. under 5% CO2 and saturated humidity until their confluency. They are then harvested by trypsinization according to the method described by the supplier for exactly 5 minutes and then reseeded in new flasks a maximum of three times.
To carry out the oxygen and glucose deprivation test followed by their replenishment, the cells will be seeded in 96-well black plates with transparent flat bottom (GREINER). Once a sufficient number of cells has been obtained to allow seeding of 2000 to 15000 cells per well of 96-well plates depending on the cell type, the cells are seeded in these 96-well plates previously coated with an extracellular matrix as listed above for the flasks. The cells are cultured for 5 to 8 days according to the cell type, in the presence of the same growth medium as in the flask as described above except for HRGEC and HRPTEpiC for which DMEM (DUTSCHER) with 1 g/L of supplemented glucose is used, at 37° C. under 5% CO2 and saturated humidity to obtain confluency.
On the first day of oxygen and glucose deprivation, (5th, 6th, 7th or 8th day of culture), the culture conditions are drastically changed. The medium of all plates is removed and replaced by DMEM (DUTSCHER) medium without glucose and supplemented only with 1% penicillin-streptomycin (DUTSCHER). Anidulafungin or micafungin dissolved in dimethyl sulfoxide (DMSO) is then added to each well at the desired concentration, resulting in a maximum of 1% DMSO, and the plates are placed under hypoxia at <1% 02 and 5% CO2 at 37° C. for 24 hours of culture. Each compound was tested in a concentration range.
After 24 hours, the growth medium is changed and replaced by a richer medium, DMEM (DUTSCHER) at 1 g/L glucose and 2% FBS (INNOPROT) and 1% penicillin-streptomycin (DUTSCHER). These media will have been pre-equilibrated at 37° C. in advance. The cells are then returned to culture at 37° C. under 20% 02 and 5% CO2 for 22h.
After 22 hours of reoxygenation, the potential protective effect of anidulafungin or micafungin is measured by a cell viability test using calcein AM (CORNING), which is a dye substrate. The calcein AM can easily cross the cell membrane of the viable cells. The AM ester groups mask the part of the molecule that chelates calcium. Once inside the cells, the (non-fluorescent) calcein AM is hydrolyzed to (fluorescent) calcein by endogenous esterases. The resulting calcein molecule binds to calcium inside the cell and remains trapped inside the cell. These molecules emit strong green fluorescence when subjected to […] of a particular wavelength (495 nm). Since dead cells lack esterase activity, only living cells are labelled.
This cell viability test is performed in two steps. […]

CCCCCOc1ccc(-c2cc(-c3ccc(C(=O)N[C@H]4C[C@@H](O)[C@@H](O)NC(=O)[C@@H]5[C@@H](O)[C@@H](C)CN5C(=O)[C@H]([C@H](O)CC(N)=O)NC(=O)[C@H]([C@H](O)[C@@H](O)c5ccc(O)c(OS(=O)(=O)O)c5)NC(=O)[C@@H]5C[C@@H](O)CN5C(=O)[C@H]([C@@H](C)O)NC4=O)cc3)no2)cc1 [Micafungin, {5-[(1S,2S)-2-[(3S,6S,9S,11R,15S,18S,20R,21R,24S,25S,26S)-3-[(1R)-2-carbamoyl-1-hydroxyethyl]-11,20,21,25-tetrahydroxy-15-[(1R)-1-hydroxyethyl]-26-methyl-2,5,8,14,17,23-hexaoxo-18-[(4-{5-[4-(pentyloxy)phenyl]-1,2-oxazol-3-yl}benzene)amido]-1,4,7,13,16,22-hexaazatricyclo[22.3.0.0]heptacosan-6-yl]-1,2-dihydroxyethyl]-2-hydroxyphenyl}oxidanesulfonic acid] (X1-[Orn(4R-OH,5R-OH)]T[Hyp][hTyr(3S-OH,4S-OH,3'-OSO3H)][Gln(3R-OH)][Pro(3S-OH,4S-Me)]; lactam 1-C)
Globalfluo assay 1 ([Micafungin] log μM 1.176091): 17307060 arbitrary units | Globalfluo assay 2 ([Micafungin] log μM 1.176091): 19173810 arbitrary units | Globalfluo assay 3 ([Micafungin] log μM 1.176091): 18057880 arbitrary units | Mean globalfluo ([Micafungin] log μM 1.176091): 18179583 arbitrary units | Survival rate (%) ([Micafungin] log μM 1.176091): 57% | Globalfluo assay 1 ([Micafungin] log μM 1.30103): 21761030 arbitrary units | Globalfluo assay 2 ([Micafungin] log μM 1.30103): 21216730 arbitrary units | Globalfluo assay 3 ([Micafungin] log μM 1.30103): 18246850 arbitrary units | Mean globalfluo ([Micafungin] log μM 1.30103): 20408203 arbitrary units | Survival rate (%) ([Micafungin] log μM 1.30103): 66% | Globalfluo assay 1 ([Micafungin] log μM 1.477121): 23916400 arbitrary units | Globalfluo assay 2 ([Micafungin] log μM 1.477121): 22885210 arbitrary units | Globalfluo assay 3 ([Micafungin] log μM 1.477121): 21104460 arbitrary units | Mean globalfluo ([Micafungin] log μM 1.477121): 22635357 arbitrary units | Survival rate (%) ([Micafungin] log μM 1.477121): 75% | Globalfluo assay 1 ([Micafungin] log μM 1.60206): 21279700 arbitrary units | Globalfluo assay 2 ([Micafungin] log μM 1.60206): 21255650 arbitrary units | Globalfluo assay 3 ([Micafungin] log μM 1.60206): 20543100 arbitrary units | Mean globalfluo ([Micafungin] log μM 1.60206): 21026150 arbitrary units | Survival rate (%) ([Micafungin] log μM 1.60206): 69% | Globalfluo assay 1 ([Micafungin] log μM 1.778151): 22384980 arbitrary units | Globalfluo assay 2 ([Micafungin] log μM 1.778151): 24586670 arbitrary units | Globalfluo assay 3 ([Micafungin] log μM 1.778151): 22823930 arbitrary units | Mean globalfluo ([Micafungin] log μM 1.778151): 23265193 arbitrary units | Survival rate (%) ([Micafungin] log μM 1.778151): 78% | Globalfluo assay 1 ([Micafungin] log μM 1.90309): 25482590 arbitrary units | Globalfluo assay 2 ([Micafungin] log μM 1.90309): 16667370 arbitrary units | Globalfluo assay 3 ([Micafungin] log μM 1.90309): 22222960 arbitrary units | Mean globalfluo ([Micafungin] log μM 1.90309): 21457640 arbitrary units | Survival rate (%) ([Micafungin] log μM 1.90309): 71% | Globalfluo assay 1 ([Micafungin] log μM 2): 23318050 arbitrary units | Globalfluo assay 2 ([Micafungin] log μM 2): 20442770 arbitrary units | Globalfluo assay 3 ([Micafungin] log μM 2): 22906760 arbitrary units | Mean globalfluo ([Micafungin] log μM 2): 22222527 arbitrary units | Survival rate (%) ([Micafungin] log μM 2): 74% | Globalfluo assay 1 ([Micafungin] log μM 2.176091): 20166170 arbitrary units | Globalfluo assay 2 ([Micafungin] log μM 2.176091): 24333680 arbitrary units | Globalfluo assay 3 ([Micafungin] log μM 2.176091): 26066530 arbitrary units | Mean globalfluo ([Micafungin] log μM 2.176091): 23522127 arbitrary units | Survival rate (%) ([Micafungin] log μM 2.176091): 79% | Globalfluo assay 1 ([Micafungin] log μM −0.154902): 3831476 arbitrary units | Globalfluo assay 2 ([Micafungin] log μM −0.154902): 4395798 arbitrary units | Globalfluo assay 3 ([Micafungin] log μM −0.154902): 3538568 arbitrary units | Mean globalfluo ([Micafungin] log μM −0.154902): 3921947 arbitrary units | Survival rate (%) ([Micafungin] log μM −0.154902): 0% | Globalfluo assay 1 ([Micafungin] log μM −0.30103): 4962690 arbitrary units | Globalfluo assay 2 ([Micafungin] log μM −0.30103): 4263110 arbitrary units | Globalfluo assay 3 ([Micafungin] log μM −0.30103): 4133198 arbitrary units | Mean globalfluo ([Micafungin] log μM −0.30103): 4452999 arbitrary units | Survival rate (%) ([Micafungin] log μM −0.30103): 2% | Globalfluo assay 1 ([Micafungin] log μM −0.5228788): 4164368 arbitrary units | Globalfluo assay 2 ([Micafungin] log μM −0.5228788): 5246152 arbitrary units | Globalfluo assay 3 ([Micafungin] log μM −0.5228788): 3621246 arbitrary units | Mean globalfluo ([Micafungin] log μM −0.5228788): 4343922 arbitrary units | Survival rate (%) ([Micafungin] log μM −0.5228788): 2% | Globalfluo assay 1 ([Micafungin] log μM −1): 4086038 arbitrary units | Globalfluo assay 2 ([Micafungin] log μM −1): 5779074 arbitrary units | Globalfluo assay 3 ([Micafungin] log μM −1): 4555233 arbitrary units | Mean globalfluo ([Micafungin] log μM −1): 4806782 arbitrary units | Survival rate (%) ([Micafungin] log μM −1): 4% | Globalfluo assay 1 ([Micafungin] log μM −2): 4295861 arbitrary units | Globalfluo assay 2 ([Micafungin] log μM −2): 4126418 arbitrary units | Globalfluo assay 3 ([Micafungin] log μM −2): 4707699 arbitrary units | Mean globalfluo ([Micafungin] log μM −2): 4376659 arbitrary units | Survival rate (%) ([Micafungin] log μM −2): 2% | Globalfluo assay 1 ([Micafungin] log μM −3): 4397869 arbitrary units | Globalfluo assay 2 ([Micafungin] log μM −3): 4804046 arbitrary units | Globalfluo assay 3 ([Micafungin] log μM −3): 3922702 arbitrary units | Mean globalfluo ([Micafungin] log μM −3): 4374872 arbitrary units | Survival rate (%) ([Micafungin] log μM −3): 2%
